Assay results as given in patent US20230331731A1, “CRYSTAL FORM OF PYRROLO HETEROCYCLIC DERIVATIVE AND PREPARATION METHOD THEREFOR” (Jiangsu Hengrui Pharmaceuticals Co., Ltd., priority 2020, published 2023).

Experiments:
Assay type in all cases: physicochemical
[1] = Long-term/accelerated stability study
Experimental: 1. The hydrobromide in crystal form α was left to stand under 25° C., 60% RH conditions and 40° C., 75% RH conditions to investigate its stability.
4. The fumarate in crystal form II was subjected to 6-month long-term (25° C., 60% RH) and accelerated (40° C., 75% RH) stability studies.

[2] = DVS (dynamic vapor sorption) analysis
Experimental: DVS refers to dynamic vapor sorption: The measurement was conducted on SMS DVS Advantage; at 25° C., the humidity was changed as follows: 50%-95%-0%-95%-50%, in steps of 10% (5% for the last step) (specific humidity ranges are shown in corresponding graphs, and those listed here were used in most cases); the criterion was dm/dt being no greater than 0.002%.

[3] = Influencing factor stability study
[4] = 40° C., open, 30 days (5/10/30-day study)
[5] = 60° C., open, 30 days (5/10/30-day study)
[6] = 4500 Lux, open, 30 days (5/10/30-day study)
[7] = RH 75%, open, 30 days (5/10/30-day study)

SMILES: Cn1nccc1Nc1nccc(-c2cc3n(c2)C(=O)N([C@H](CO)c2cccc(Cl)c2)C3)n1.O=C(O)/C=C/C(=O)O [Fumarate in crystal form II]
- Purity, 1 month ([1]; 25° C., 60%RH): 99.7%
- Purity, 2 months ([1]; 25° C., 60%RH): 99.7%
- Purity, 3 months ([1]; 25° C., 60%RH): 99.7%
- Purity, 6 months ([1]; 25° C., 60%RH, 6 months): 99.7%
- Purity, 1 month ([1]; 40° C., 75%RH): 99.7%
- Purity, 2 months ([1]; 40° C., 75%RH): 99.7%
- Purity, 3 months ([1]; 40° C., 75%RH): 99.7%
- Purity, 6 months ([1]; 40° C., 75%RH, 6 months): 99.7%
- Purity, Initial ([1]; Initial): 99.7%
- physical and chemical stability (conclusion) ([1]; long-term (25° C., 60% RH) and accelerated (40° C., 75% RH) conditions, 6 months): good physical and chemical stability
- moisture-absorption weight gain ([2]; accelerated conditions, 70% RH): about 2.75%
- moisture-absorption weight gain ([2]; extreme conditions, 90% RH): about 3.85%
- moisture-absorption weight gain ([2]; normal conditions, 25° C., 60% RH): about 2.38%
- crystal form after DVS analysis ([2]; re-examined after DVS): did not change
- Color and appearance ([3]; 40° C., open, 5 days): White solid
- Purity ([3]; 40° C., open, 5 days): 99.6%
- Color and appearance ([3]; 40° C., open, 10 days): White solid
- Purity ([3]; 40° C., open, 10 days): 99.5%
- Color and appearance [3, 4]: White solid
- Purity [3, 4]: 99.2%
- Color and appearance ([3]; 60° C., open, 5 days): White solid
- Purity ([3]; 60° C., open, 5 days): 99.5%
- Color and appearance ([3]; 60° C., open, 10 days): White solid
- Purity ([3]; 60° C., open, 10 days): 99.5%
- Color and appearance [3, 5]: White solid
- Purity [3, 5]: 98.0%
- Color and appearance ([3]; 4500 Lux, open, 5 days): White solid
- Purity ([3]; 4500 Lux, open, 5 days): 99.6%
- Color and appearance ([3]; 4500 Lux, open, 10 days): White solid
- Purity ([3]; 4500 Lux, open, 10 days): 99.6%
- Color and appearance [3, 6]: White solid
- Purity [3, 6]: 98.4%
- Color and appearance ([3]; Initial, 0 days (30-day study)): White solid
- Purity ([3]; Initial, 0 days (30-day study)): 99.7%
- Color and appearance ([3]; RH 75%, open, 5 days): White solid
- Purity ([3]; RH 75%, open, 5 days): 99.7%
- Weight gain ([3]; RH 75%, open, 5 days): 0.54%
- Color and appearance ([3]; RH 75%, open, 10 days): White solid
- Purity ([3]; RH 75%, open, 10 days): 99.7%
- Weight gain ([3]; RH 75%, open, 10 days): 1.03%
- Weight gain ([3]; RH 75%, open, 30 days): 1.42%
- Color and appearance [3, 7]: White solid
- Purity [3, 7]: 99.7%
- Color and appearance ([3]; RH 90%, open, 5 days): White solid
- Purity ([3]; RH 90%, open, 5 days): 99.7%
- Weight gain ([3]; RH 90%, open, 5 days): 1.16%
- Color and appearance ([3]; RH 90%, open, 10 days): White solid
- Purity ([3]; RH 90%, open, 10 days): 99.7%
- Weight gain ([3]; RH 90%, open, 10 days): 2.77%
- Color and appearance ([3]; RH 90%, open, 30 days): White solid
- Purity ([3]; RH 90%, open, 30 days): 99.7%
- Weight gain ([3]; RH 90%, open, 30 days): 3.97%
- physical and chemical stability (conclusion) ([3]; high-temperature conditions (40° C. and 60° C.) and high-humidity conditions (75% and 92.5%), 30 days): relatively good physical and chemical stability
